For this experiment, the target named is T1, human protease activated receptor 1 (PAR1) (Homo sapiens, UniProt P25116).
T1 construct: the cell stably expresses the endogenous human PAR1 receptor and the endogenous purinergic receptor P2Y2; endogenous in cells; host or cells: HEK293-derived recombinant cell line constitutively expressing mitochondrial aequorin
T1 sequence (P25116 22-425): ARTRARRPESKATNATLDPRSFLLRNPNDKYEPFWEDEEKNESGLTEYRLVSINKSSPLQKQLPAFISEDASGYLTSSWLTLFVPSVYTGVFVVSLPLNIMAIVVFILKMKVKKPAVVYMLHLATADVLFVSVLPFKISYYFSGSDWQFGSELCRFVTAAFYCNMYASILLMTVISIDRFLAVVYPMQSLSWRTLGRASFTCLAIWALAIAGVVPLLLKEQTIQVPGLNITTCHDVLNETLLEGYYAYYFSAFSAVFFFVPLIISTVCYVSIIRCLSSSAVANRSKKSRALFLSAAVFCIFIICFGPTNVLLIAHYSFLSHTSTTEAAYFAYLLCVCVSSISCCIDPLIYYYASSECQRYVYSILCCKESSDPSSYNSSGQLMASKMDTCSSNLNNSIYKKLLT
The experiment can be described thus: Cellular functional in vitro test (aequorin luminescence, PAR1 test cell). The conditions noted are these: recombinant HEK293-derived cell line expressing aequorin; PAR1 agonist added at its EC50 5 minutes after test substance. The format is cell-based. From the text: 1.a) Cellular Functional In vitro Test
A recombinant cell line is used to identify […] of the human protease activated receptor 1 (PAR1) and to quantify the activity of the substances described herein. The cell is originally derived from a human embryonal kidney cell (HEK293; ATCC: American Type Culture Collection, Manassas, Va. 20108, USA). The test cell line constitutively expresses a modified form of the calcium-sensitive photoprotein aequorin which, after reconstitution with the cofactor coelenterazine, emits light when the free calcium concentration in the inner mitochondrial compartment is increased (Rizzuto R, Simpson A W, Brini M, Pozzan T.; Nature 1992, 358, 325-327). Additionally, the cell stably expresses the endogenous human PAR1 receptor and the endogenous purinergic receptor P2Y2. The resulting PAR1 test cell responds to stimulation of the endogenous PAR1 or P2Y2 receptor with an intracellular release of calcium ions, which can be quantified through resulting aequorin luminescence with a suitable luminometer (Milligan G, Marshall F, Rees S, Trends in Pharmacological Sciences 1996, 17, 235-237).
For testing the substance specificity, its effect after activation of the endogenous PAR1 receptor is compared to the effect after activation of the endogenous purinergic P2Y2 receptor which utilizes the same intracellular signal path.
Test procedure: The cells are plated out two days (48 hours) before the test in culture medium (DMEM F12, supplemented with 10% FCS, 2 mM glutamine, 20 mM HEPES, 1.4 mM pyruvate, 0.1 mg/ml gentamycin, 0.15% Na bicarbonate; BioWhittaker Cat.# BE04-687Q; B-4800 Verviers, Belgium) in 384-well microtitre plates and kept in a cell incubator (96% atmospheric humidity, 5% V/V CO2, 37° C.). On the day of the test, the culture medium is replaced by a tyrode solution (in mM: 140NaCl, 5l KCl, 1MgCl2, 2CaCl2, 20 glucose, 20 HEPES), which additionally contains the cofactor coelenterazine (25 μM) and glutathione (4 mM), and the microtitre plate is then incubated for a further 3-4 hours. The test substances are then pipetted onto the microtitre plate, and 5 minutes after the transfer of the test substances into the wells of the microtitre plate the plate is transferred into the luminometer, a PAR1 agonist concentration which corresponds to the EC50 is added and the resulting light signal is immediately measured in the luminometer. To distinguish an antagonist substance action from a toxic action, the endogenous purinergic receptor is immediately subsequently activated with agonist (ATP, final concentration 10 μM) and the resulting light signal is measured.
`CCc1ccc(C2CC(c3nc(-c4cccc(OC)c4)no3)CN(C(=O)N3CCOCC3)C2)cc1` (racemic) [Example 28, 4-({3-(4-Ethylphenyl)-5-[3-(3-methoxyphenyl)-1,2,4-oxadiazol-5-yl]piperidin-1-yl}carbonyl)-morpholine]: the 50% inhibitory concentration (IC50) amounted to 28 nM.
`CCc1ccc(C2CC(c3nc(-c4ccc(F)cc4F)no3)CN(C(=O)N3CCOCC3)C2)cc1` (racemic) [Example 37, 4-({3-[3-(2,4-Difluorophenyl)-1,2,4-oxadiazol-5-yl]-5-(4-ethylphenyl)piperidin-1-yl}carbonyl)-morpholine]: the IC50 came out at 21 nM.
Turning to `Cc1ccncc1-c1csc(C2CC(c3ccc(C(F)(F)F)cc3)CN(C(=O)N3CCOCC3)C2)n1` (racemic) [Example 113, 4-({3-[4-(4-Methylpyridin-3-yl)-1,3-thiazol-2-yl]-5-[4-(trifluoromethyl)phenyl]piperidin-1-yl}carbonyl)morpholine], the IC50 came out at 47 nM.
Consider `O=C(N1CCOCC1)N1CC(c2ccc(C(F)(F)F)cc2)CC(c2nc(-c3cccnc3)cs2)C1` (racemic) [Example 119, 4-({3-(4-Pyridin-3-yl-1,3-thiazol-2-yl)-5-[4-(trifluoromethyl)phenyl]piperidin-1-yl}carbonyl)-morpholine], for which the IC50 worked out at 68 nM.
Consider `O=C(N1CC(c2ccc(OC(F)(F)F)cc2)CC(c2nc(C3CC3)no2)C1)N1CCC(F)(F)C1` (racemic) [Example 144, {3-(3-Cyclopropyl-1,2,4-oxadiazol-5-yl)-5-[4-(trifluoromethoxy)phenyl]piperidin-1-yl}(3,3-difluoropyrrolidin-1-yl)methanone], for which the half-maximal inhibitory concentration (IC50) was 8.51 nM.
For the compound `Cc1ccc(C2CC(c3nc(C(C)C)no3)CN(C(=O)N3CCOCC3)C2)cc1C` (racemic) [Example 148, {3-(3,4-Dimethylphenyl)-5-[3-(propan-2-yl)-1,2,4-oxadiazol-5-yl]piperidin-1-yl}(morpholin-4-yl)methanone], the IC50 was determined as 14 nM.
To `CCc1ccc(C2CC(c3nc(CCOC)no3)CN(C(=O)N3CCOCC3)C2)cc1` (racemic) [Example 150, {3-(4-Ethylphenyl)-5-[3-(2-methoxyethyl)-1,2,4-oxadiazol-5-yl]piperidin-1-yl}(morpholin-4-yl)methanone] belongs 19 nM; to `CCc1ccc(C2CC(c3nc(C(C)(C)C)no3)CN(C(=O)N3CCC(O)CC3)C2)cc1` (racemic) [Example 152], 48.1 nM; to `O=C(N1CCOCC1)N1CC(c2ccc(C(F)(F)F)cc2)CC(c2noc(-c3cccc(F)c3)n2)C1` (racemic) [Example 159, {3-[5-(3-Fluorophenyl)-1,2,4-oxadiazol-3-yl]-5-[4-(trifluoromethyl)phenyl]piperidin-1-yl}-(morpholin-4-yl)methanone], 4.61 nM.
To `O=C(N1CCOCC1)N1CC(c2ccc(C(F)(F)F)cc2)CC(c2noc(-c3ccccc3)n2)C1` (racemic) [Example 160, Morpholin-4-yl{3-(5-phenyl-1,2,4-oxadiazol-3-yl)-5-[4(trifluoromethyl)phenyl]piperidin-1-yl}-methanone] belongs 5.4 nM; to `CC(C)c1nc(C2CC(c3ccc(C(F)(F)F)cc3)CN(C(=O)N3CCOCC3)C2)no1` (racemic) [Example 169, Morpholin-4-yl{3-[5-(propan-2-yl)-1,2,4-oxadiazol-3-yl]-5-[4-(trifluoromethyl)phenyl]piperidin-1-yl}methanone], 6.74 nM; to `CC1CN(C(=O)N2CC(c3ccc(C(F)(F)F)cc3)CC(c3nc(C4CC4)no3)C2)C1` (racemic) [Example 181, {3-(3-Cyclopropyl-1,2,4-oxadiazol-5-yl)-5-[4-(trifluoromethyl)phenyl]piperidin-1-yl}(3-methylazetidin-1-yl)methanone], 28.8 nM.
To `CCc1ccc(C2CC(c3nc(CCOC)no3)CN(C(=O)N3CCC(O)CC3)C2)cc1` (racemic) [Example 183, {3-(4-Ethylphenyl)-5-[3-(2-methoxyethyl)-1,2,4-oxadiazol-5-yl]piperidin-1-yl}(4-hydroxy-piperidin-1-yl)methanone] belongs 31.5 nM; to `CCc1ccc(C2CC(c3nc(C(C)(C)O)no3)CN(C(=O)N3CCC(O)CC3)C2)cc1` (racemic) [Example 187, {3-(4-Ethylphenyl)-5-[3-(2-hydroxypropan-2-yl)-1,2,4-oxadiazol-5-yl]piperidin-1-yl}(4-hydroxy-piperidin-1-yl)methanone], 53.4 nM; to `Cc1ccc(C2CC(c3nc(C(C)C)no3)CN(C(=O)N3CCC(C#N)CC3)C2)cc1C` (racemic) [Example 197, 1-({3-(3,4-Dimethylphenyl)-5-[3-(propan-2-yl)-1,2,4-oxadiazol-5-yl]piperidin-1-yl}carbonyl)-piperidine-4-carbonitrile], 77.5 nM.
For `CC(C)(O)Cc1noc(C2CC(c3ccc(C(F)(F)F)cc3)CN(C(=O)N3CCC(C#N)CC3)C2)n1` (racemic) [Example 212, 1-({3-[3-(2-Hydroxy-2-methylpropyl)-1,2,4-oxadiazol-5-yl]-5-[4-(trifluoromethyl)phenyl]-piperidin-1-yl}carbonyl)piperidine-4-carbonitrile], the IC50 was 142 nM.
With `Cc1cc(C2CC(c3nc(-c4cccc(F)c4)no3)CN(C(=O)N3CCC(O)CC3)C2)ccc1OC(F)(F)F` (racemic) [Example 229, {3-[3-(3-Fluorophenyl)-1,2,4-oxadiazol-5-yl]-5-[3-methyl-4-(trifluoromethoxy)phenyl]piperidin-1-yl}(4-hydroxypiperidin-1-yl)methanone], the IC50 was determined as 1.72 nM.
`Cc1cc(C2CC(c3nc(C4CC4)no3)CN(C(=O)N3CCC(O)CC3)C2)ccc1OC(F)(F)F` (racemic) [Example 230, {3-(3-Cyclopropyl-1,2,4-oxadiazol-5-yl)-5-[3-methyl-4-(trifluoromethoxy)phenyl]piperidin-1-yl}(4-hydroxypiperidin-1-yl)methanone]: the IC50 was 2.81 nM.
Turning to `Cc1ccc(C2CC(c3nc(-c4cccc(F)c4)no3)CN(C(=O)N3CCC(O)CC3)C2)cc1C` (racemic) [Example 232, {3-(3,4-Dimethylphenyl)-5-[3-(3-fluorophenyl)-1,2,4-oxadiazol-5-yl]piperidin-1-yl}(4-hydroxy-piperidin-1-yl)methanone], the IC50 is 6.44 nM.
`Cc1ccc(C2CC(c3nc(C(C)C)no3)CN(C(=O)N3CCC(O)CC3)C2)cc1C` (racemic) [Example 234, {3-(3,4-Dimethylphenyl)-5-[3-(propan-2-yl)-1,2,4-oxadiazol-5-yl]piperidin-1-yl}(4-hydroxy-piperidin-1-yl)methanone]: the IC50 was found to be 15.4 nM.
The result for `Cc1cc(-c2noc(C3CC(c4ccc(OC(F)(F)F)cc4)CN(C(=O)N4CCOCC4)C3)n2)no1` (racemic) [Example 249, {3-[3-(5-Methylisoxazol-3-yl)-1,2,4-oxadiazol-5-yl]-5-[4-(trifluoromethoxy)phenyl]piperidin-1-yl}(morpholin-4-yl)methanone] reads 13.1 nM.
The result for `CC(C)(C)c1noc(C2CC(c3ccc(C(F)(F)F)cc3)CN(C(=O)N3CCC(C#N)CC3)C2)n1` (racemic) [Example 283, 1-({3-(3-tert-Butyl-1,2,4-oxadiazol-5-yl)-5-[4-(trifluoromethyl)phenyl]piperidin-1-yl}carbonyl)-piperidine-4-carbonitrile] reads 14.9 nM.
To `CC(C)c1noc(C2CC(c3ccc(C(F)(F)F)cc3)CN(C(=O)N3CCC(C#N)CC3)C2)n1` (racemic) [Example 284, 1-({3-[3-(Propan-2-yl)-1,2,4-oxadiazol-5-yl]-5-[4-(trifluoromethyl)phenyl]piperidin-1-yl}-carbonyl)piperidine-4-carbonitrile] belongs 9.73 nM.

As usually defined, the IC50 is the concentration at which inhibition is half-maximal.

(Values after patent US8119663B2, “Heteroaryl-substituted piperidines” (Bayer Pharma Aktiengesellschaft, priority 2007, dated 2012).)
